According to paper PMC10498496, “Design and Synthesis of Poly(2,2′-Bipyridyl) Ligands for Induction of Cell Death in Cancer Cells: Control of Anticancer Activity by Complexation/Decomplexation with Biorelevant Metal Cations” (Inorganic Chemistry, 2023):
Read-outs that look alike come from different tables or passages of the source.

Key:
Assay type in all cases: cell-based, human
Jurkat cells = assay: Annexin V-FITC/PI staining by flow cytometry; conditions: 24 h
Experimental: The cell death in Jurkat cells induced by 1 and cisplatin (after the treatment for 24 h) was characterized by the flow cytometry of Jurkat cells after co-staining with Annexin V-FITC and PI to characterize the early and late apoptosis or necrosis. Each of the four areas in Figure 6 indicates Annexin V-FITC negative and PI signal positive (= necrotic cells) (top left square), Annexin V-FITC positive and PI positive (= late apoptosis) (top right square), Annexin V-FITC negative and PI negative (= alive cells) (bottom left square); and Annexin V-FITC positive and PI signal negative (= early apoptosis cells) (bottom right square), respectively. As summarized in Figure 7, the percentage of late apoptotic cells of the cells that had been treated with cisplatin increased from 15 to 75% at [cisplatin] = 12.5 to 50 μM and the percentage of late apoptotic cells of cells treated with 1 increased from 14 to 65% at = […] to 5 μM.
Figure 6 Jurkat cells were treated with no ligand (a) and with 1 (0.5–5 μM) (b,c) and cisplatin (12.5–50 μM) (d,e) and for 24 h, stained with Annexin V-FITC/PI, and observed by flow cytometry. The four areas in each graph show necrotic cells in the top left square (Annexin V-FITC^-/PI^+), late apoptotic cells in the top right square (Annexin V-FITC^+/PI^+), alive cells in the bottom left square (Annexin V-FITC^–/PI^–), and apoptotic cells in the bottom right square (Annexin V-FITC^+/PI^–). TEXT PRINTED IN THE PICTURE: (b) 1: 1.14 (0.5 μM); 14.7 (0.5 μM); 83.5 (0.5 μM); 0.7 (0.5 μM) | (c) 1: 0.82 (5 μM); 59 (5 μM); 38.5 (5 μM); 1.6 (5 μM) | (d) cisplatin: 4.19 (12.5 μM); 24.3 (12.5 μM); 71.3 (12.5 μM); 0.23 (12.5 μM) | (e) cisplatin: 0.94 (50 μM); 66.2 (50 μM); 32.6 (50 μM); 0.24 (50 μM) DOUBTS OF THE COPYIST ABOUT THIS PICTURE: The quadrant numbers are printed without a measure or unit. In each panel they are given in the order top left, top right, bottom left, bottom right. / Panel (a) Control (1.26, 3.82, 94.9, 0.072) is left out because it is not a substance.
Jurkat cells (1.0 × 10^5 cells/tube) were incubated in 10% FBS RPMI 1640 medium containing solution of 1 ([…]) and cisplatin (0–50 μM) for 24 h. The cells were then centrifuged at 3000 rpm for 5 min at 4 °C, then the supernatant was discarded, and the pellet was resuspended in 200 μL of PBS. The cells were then centrifuged at 3000 rpm for 5 min at 4 °C, then the supernatant was discarded, and the pellet was resuspended in 195 μL of 1 × binding buffer. A 195 μL aliquot of the sample solution was incubated with 5 μL of FITC-conjugated annexin V (Invitrogen) for 15 min at room temperature in the dark. […] 200 μL of the sample solution transferred to culture tube were analyzed by flow cytometry (Becton Dickinson) using Cell Quest Research Software (Becton Dickinson).

U937 cells = assay: MTT assay, cytotoxicity against U937 cells; conditions: MTT, 37 °C, treated for 24 h, read-out: EC50 against U937
Experimental: (§1) Second, we conducted the quantitative evaluation of the cytotoxicity of 1, 2, and 3 against various cancer cell lines by an MTT (3-(4,5-dimethylthiazol-2-yl)-2,5-diphenyltetrazolium bromide) assay. Jurkat, MOLT-4 (these two cell lines are human T-lymphocyte leukemia cells), and U937 (human lymphoma) cells (1.5 × 10^4 cells/well) were incubated in RPMI 1640 medium containing 10% FBS (fetal bovine serum) containing 1, 2, and 3 (0–25 μM) at 37 °C for 24 h, and then treated with the MTT reagent. A549 (human alveolar adenocarcinoma) and IMR-90 (normal human fetal lung fibroblast as model of normal cells) cells (1.5 × 10^4 cells/well) were incubated in DMEM (low glucose) with 10% FBS containing 1, 2, and 3 (0–25 μM), HeLa S3 (human epithelial carcinoma cells) cells (1.5 × 10^4 cells/well) were incubated in MEM with 10% FBS containing these ligands (0–25 μM) for 24 h at 37 °C and then treated with the MTT reagent.
• (a) Cytotoxic study. Jurkat cells, MOLT-4 cells, and U937 cells (1.5 × 10^5 cells/mL per one well) were incubated in 10% FBS RPMI 1640 medium containing 1 (0–25 μM), 2 (0–25 μM) , 3, cisplatin (0–100 μM), and actinomycin D (0–10 μM) under 5% CO2 at 37 °C for 24 h on 96 well plates (Watson), 0.5% MTT (3-(4,5-dimethyl-2-thiazolyl)-2,5-diphenyl-2H-tetrazolium bromide) reagent in PBS (10 μL) was then added to the cells. After incubation at 37 °C for 4 h, a formazan lysis solution (10% SDS in 0.01 N HCl) (100 μL) was added and the resulting solution was incubated overnight under the same conditions, followed by the measurement of absorbance at 570 nm with a microplate reader (BIO-RAD).

A549 cells = assay: MTT assay, cytotoxicity against A549 cells; conditions: treated for 24 h
Experimental: as §1
HeLa S3 cells and A549 cells in MEM and DMEM medium with 10% FBS (1.5 × 10^5 cells/mL per one well) were seeded in to 96 well plates and incubated for 24 h, MTT assay of poly(bpy) ligands (0–25 μM), cisplatin (0–100 μM), and actinomycin D (0–10 μM) was performed according to the same procedure described above.

Row | SMILES | percentage of late apoptotic cells (Jurkat cells; 0.25 μM (Figure 7, n = 3)) [%] | percentage of late apoptotic cells (Jurkat cells; 5 μM (Figure 7, n = 3)) [%] | EC50 (U937 cells; Homo sapiens, U-937) [µM] | EC50 (A549 cells; Homo sapiens, A549, 37 °C) [µM] | percentage of late apoptotic cells (Jurkat cells; 12.5 μM (Figure 7, n = 3)) [%] | percentage of late apoptotic cells (Jurkat cells; 50 μM (Figure 7, n = 3)) [%] | EC50 (U937 cells) [µM] | EC50 (A549 cells; 37 °C) [µM]
1 | c1ccc(-c2ccc(OCc3cc(COc4ccc(-c5ccccn5)nc4)cc(COc4ccc(-c5ccccn5)nc4)c3)cn2)nc1 [compound 1, 1,3,5-Tris(([2,2′-Bipyridin]-5-yloxy)methyl)benzene] | 14 | 65 | 0.32 ± 0.22 | 15 ± 0.79 |  |  |  | 
2 | N.N.[Cl][Pt][Cl] [cisplatin, reference compound] |  |  |  |  | 15 | 75 | 24 ± 0.9 | > 100
